Structures are written as SMILES.

The target of the assay is Bcl-2 protein (Homo sapiens (Human), UniProt P10415). Nature of the assay: Bcl-2 binding TR-FRET (Time-Resolved Fluorescence-Resonance-Energy-Transfer) assay. Particulars: inhibition constant for binding to Bcl-2 protein. The text has this: The smaller the Ki value, the greater is the binding affinity.
Bcl-2 protein, sequence (P10415 whole entry): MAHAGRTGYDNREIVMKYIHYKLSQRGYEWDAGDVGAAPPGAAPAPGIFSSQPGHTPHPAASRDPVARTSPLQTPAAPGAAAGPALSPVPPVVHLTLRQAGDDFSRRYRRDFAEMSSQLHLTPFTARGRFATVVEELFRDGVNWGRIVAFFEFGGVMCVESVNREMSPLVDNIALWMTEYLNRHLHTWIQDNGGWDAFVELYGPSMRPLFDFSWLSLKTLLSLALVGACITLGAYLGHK
(In general: Time-resolved FRET reads energy transfer from a long-lived donor to a nearby acceptor.)
Broadly, the Ki is a dissociation constant, usually derived from enzyme kinetics or from competition with a known ligand. Consider `COCCOCCN1CCOC(CNc2ccc(S(=O)(=O)NC(=O)c3ccc(N4CCN(CC5=C(c6ccc(Cl)cc6)CC(C)(C)CC5)CC4)cc3Oc3cnc4[nH]ccc4c3)cc2[N+](=O)[O-])C1` (stereo not drawn) [Compound 213, 4-(4-{[2-(4-chlorophenyl)-4,4-dimethylcyclohex-1-en-1-yl]methyl}piperazin-1-yl)-N-({4-[({4-[2-(2-methoxyethoxyl)ethyl]morpholin-2-yl}methyl)amino]-3-nitrophenyl}sulfonyl)-2-(1H-pyrrolo[2,3-b]pyridin-5-yloxy)benzamide], for which the Ki was less than 10 pM. On to `CC1(C)CCC(CN2CCN(c3ccc(C(=O)NS(=O)(=O)c4ccc(NC(=O)N5CCOCC5)c([N+](=O)[O-])c4)c(Oc4cnc5[nH]ccc5c4)c3)CC2)=C(c2ccc(Cl)cc2)C1` [Compound 373, N-(4-{[4-(4-{[2-(4-chlorophenyl)-4,4-dimethylcyclohex-1-en-1-yl]methyl}piperazin-1-yl)-2-(1H-pyrrolo[2,3-b]pyridin-5-yloxy)benzoyl]sulfamoyl}-2-nitrophenyl)morpholine-4-carboxamide], for which the inhibition constant Ki is less than 1 pM. To `CC(C)N1CCC2(CCC(c3ccc(Cl)cc3)=C(CN3CCN(c4ccc(C(=O)NS(=O)(=O)c5cnc(OCC6CCOCC6)c(Cl)c5)c(Oc5cnc6[nH]ccc6c5)c4)CC3)C2)CC1` [Compound 268, 4-(4-{[9-(4-chlorophenyl)-3-isopropyl-3-azaspiro[5.5]undec-8-en-8-yl]methyl}piperazin-1-yl)-N-{[5-chloro-6-(tetrahydro-2H-pyran-4-ylmethoxy)pyridin-3-yl]sulfonyl}-2-(1H-pyrrolo[2,3-b]pyridin-5-yloxy)benzamide] belongs less than 10 pM; to `CC1(C)CCC(CN2CCN(c3ccc(C(=O)NS(=O)(=O)c4ccc(NC[C@H]5CN(C6COC6)CCO5)c([N+](=O)[O-])c4)c(Oc4cnc5[nH]ccc5c4)c3)CC2)=C(c2ccc(Cl)cc2)C1` [Compound 361, 4-(4-{[2-(4-chlorophenyl)-4,4-dimethylcyclohex-1-en-1-yl]methyl}piperazin-1-yl)-N-{[3-nitro-4-({[(2S)-4-(oxetan-3-yl)morpholin-2-yl]methyl}amino)phenyl]sulfonyl}-2-(1H-pyrrolo[2,3-b]pyridin-5-yloxy)benzamide], less than 10 pM. The result for `COCC1(C)CCC(c2ccc(Cl)cc2)=C(CN2CCN(c3ccc(C(=O)NS(=O)(=O)c4ccc(NCC5CCOCC5)c([N+](=O)[O-])c4)c(Oc4cnc5[nH]ccc5c4)c3)CC2)C1` (stereo not drawn) [Compound 360, 4-(4-{[2-(4-chlorophenyl)-5-(methoxymethyl)-5-methylcyclohex-1-en-1-yl]methyl}piperazin-1-yl)-N-({3-nitro-4-[(tetrahydro-2H-pyran-4-ylmethyl)amino]phenyl}sulfonyl)-2-(1H-pyrrolo[2,3-b]pyridin-5-yloxy)benzamide] reads less than 10 pM. To `CC1(C)CCC(CN2CCN(c3ccc(C(=O)NS(=O)(=O)c4ccc(NCC5CCN(C6CC6)CC5)c([N+](=O)[O-])c4)c(Oc4cnc5[nH]ccc5c4)c3)CC2)=C(c2ccc(Cl)cc2)C1` [Compound 164, 4-(4-{[2-(4-chlorophenyl)-4,4-dimethylcyclohex-1-en-1-yl]methyl}piperazin-1-yl)-N-[(4-{[(1-cyclopropylpiperidin-4-yl)methyl]amino}-3-nitrophenyl)sulfonyl]-2-(1H-pyrrolo[2,3-b]pyridin-5-yloxy)benzamide] belongs less than 10 pM.

On to `CC1(C)CCC(CN2CCN(c3ccc(C(=O)NS(=O)(=O)c4ccc(NC[C@@H]5CC[C@@H](O)C5)c([N+](=O)[O-])c4)c(Oc4cnc5[nH]ccc5c4)c3)CC2)=C(c2ccc(Cl)cc2)C1` [Compound 156, 4-(4-{[2-(4-chlorophenyl)-4,4-dimethylcyclohex-1-en-1-yl]methyl}piperazin-1-yl)-N-{[4-({[(1R,3R)-3-hydroxycyclopentyl]methyl}amino)-3-nitrophenyl]sulfonyl}-2-(1H-pyrrolo[2,3-b]pyridin-5-yloxy)benzamide], for which the Ki was less than 10 pM. To `CC1(C)CCC(CN2CCN(c3ccc(C(=O)NS(=O)(=O)c4ccc(NCC5CN(C6COC6)CCO5)c([N+](=O)[O-])c4)c(Oc4cnc5[nH]ccc5c4)c3)CC2)=C(c2ccc(Cl)cc2)C1` (stereo not drawn) [Compound 217, 4-(4-{[2-(4-chlorophenyl)-4,4-dimethylcyclohex-1-en-1-yl]methyl}piperazin-1-yl)-N-{[3-nitro-4-({[4-(oxetan-3-yl)morpholin-2-yl]methyl}amino)phenyl]sulfonyl}-2-(1H-pyrrolo[2,3-b]pyridin-5-yloxy)benzamide] belongs less than 10 pM. `CC1(C)CCC(CN2CCN(c3ccc(C(=O)NS(=O)(=O)c4ccc(N[C@H]5CCCN(C6CCOCC6)C5)c([N+](=O)[O-])c4)c(Oc4cnc5[nH]ccc5c4)c3)CC2)=C(c2ccc(Cl)cc2)C1` [Compound 105, 4-(4-{[2-(4-chlorophenyl)-4,4-dimethylcyclohex-1-en-1-yl]methyl}piperazin-1-yl)-N-[(3-nitro-4-{[(3S)-1-tetrahydro-2H-pyran-4-ylpiperidin-3-yl]amino}phenyl)sulfonyl]-2-(1H-pyrrolo[2,3-b]pyridin-5-yloxy)benzamide] had an inhibitory constant (Ki) of less than 10 pM. To `CC1(C)CCC(CN2CCN(c3ccc(C(=O)NS(=O)(=O)c4ccc(NN5CCS(=O)(=O)CC5)c([N+](=O)[O-])c4)c(Oc4cnc5[nH]ccc5c4)c3)CC2)=C(c2ccc(Cl)cc2)C1` [Compound 107, trans-4-(4-{[2-(4-chlorophenyl)-4,4-dimethylcyclohex-1-en-1-yl]methyl}piperazin-1-yl)-N-({4-[(1,1-dioxidothiomorpholin-4-yl)amino]-3-nitrophenyl}sulfonyl)-2-(1H-pyrrolo[2,3-b]pyridin-5-yloxy)benzamide] belongs 35 pM; to `CC1(C)CCC(CN2CCN(c3ccc(C(=O)NS(=O)(=O)c4ccc(NC5CN(C6COC6)C5)c([N+](=O)[O-])c4)c(Oc4cnc5[nH]ccc5c4)c3)CC2)=C(c2ccc(Cl)cc2)C1` [Compound 256, 4-(4-{[2-(4-chlorophenyl)-4,4-dimethylcyclohex-1-en-1-yl]methyl}piperazin-1-yl)-N-[(3-nitro-4-{[1-(oxetan-3-yl)azetidin-3-yl]amino}phenyl)sulfonyl]-2-(1H-pyrrolo[2,3-b]pyridin-5-yloxy)benzamide], less than 10 pM. The result for `CC1(C)CCC(CN2CCN(c3ccc(C(=O)NS(=O)(=O)c4ccc(OCC5(F)CCN(C6COC6)CC5)c([N+](=O)[O-])c4)c(Oc4cnc5[nH]ccc5c4)c3)CC2)=C(c2ccc(Cl)cc2)C1` [Compound 167, 4-(4-{[2-(4-chlorophenyl)-4,4-dimethylcyclohex-1-en-1-yl]methyl}piperazin-1-yl)-N-({4-[(4-fluoro-1-oxetan-3-ylpiperidin-4-yl)methoxy]-3-nitrophenyl}sulfonyl)-2-(1H-pyrrolo[2,3-b]pyridin-5-yloxy)benzamide] reads less than 10 pM; that for `CC(=O)N1CCC(Nc2ccc(S(=O)(=O)NC(=O)c3ccc(N4CCN(CC5=C(c6ccc(Cl)cc6)CC(C)(C)CC5)CC4)cc3Oc3cnc4[nH]ccc4c3)cc2[N+](=O)[O-])CC1` [Compound 53, N-({4-[(1-acetylpiperidin-4-yl)amino]-3-nitrophenyl}sulfonyl)-4-(4-{[2-(4-chlorophenyl)-4,4-dimethylcyclohex-1-en-1-yl]methyl}piperazin-1-yl)-2-(1H-pyrrolo[2,3-b]pyridin-5-yloxy)benzamide], less than 10 pM. The result for `CN1CCC(COc2ncc(S(=O)(=O)NC(=O)c3ccc(N4CCN(CC5=C(c6ccc(Cl)cc6)CC(C)(C)CC5)CC4)cc3Oc3cnc4[nH]ccc4c3)cc2Br)CC1` [Compound 47, N-({5-bromo-6-[(1-methylpiperidin-4-yl)methoxy]pyridin-3-yl}sulfonyl)-4-(4-{[2-(4-chlorophenyl)-4,4-dimethylcyclohex-1-en-1-yl]methyl}piperazin-1-yl)-2-(1H-pyrrolo[2,3-b]pyridin-5-yloxy)benzamide] reads less than 10 pM.

`CC1(C)CCC(CN2CCN(c3ccc(C(=O)NS(=O)(=O)c4ccc(N[C@H]5CCN(CC(F)F)C5)c([N+](=O)[O-])c4)c(Oc4cnc5[nH]ccc5c4)c3)CC2)=C(c2ccc(Cl)cc2)C1` [Compound 182, 4-(4-{[2-(4-chlorophenyl)-4,4-dimethylcyclohex-1-en-1-yl]methyl}piperazin-1-yl)-N-[(4-{[(3S)-1-(2,2-difluoroethyl)pyrrolidin-3-yl]amino}-3-nitrophenyl)sulfonyll]-2-(1H-pyrrolo[2,3-b]pyridin-5-yloxy)benzamide] gave a Ki of 68 pM. The result for `O=C(NS(=O)(=O)c1ccc(NCC2CN(C3CC3)CCO2)c([N+](=O)[O-])c1)c1ccc(N2CCN(CC3=C(c4ccc(Cl)cc4)CC4(CC3)CC4)CC2)cc1Oc1cnc2[nH]ccc2c1` (stereo not drawn) [Compound 330, 4-(4-{[5-(4-chlorophenyl)spiro[2.5]oct-5-en-6-yl]methyl}piperazin-1-yl)-N-[(4-{[(4-cyclopropylmorpholin-2-yl)methyl]amino}-3-nitrophenyl)sulfonyl]-2-(1H-pyrrolo[2,3-b]pyridin-5-yloxy)benzamide] reads less than 10 pM. To `CC1(C)CCC(CN2CCN(c3ccc(C(=O)NS(=O)(=O)c4ccc(N[C@H]5CC[C@@H](N6CCOCC6)C5)c([N+](=O)[O-])c4)c(Oc4cnc5[nH]ccc5c4)c3)CC2)=C(c2ccc(Cl)cc2)C1` [Compound 111, 4-(4-{[2-(4-chlorophenyl)-4,4-dimethylcyclohex-1-en-1-yl]methyl}piperazin-1-yl)-N-[(4-{[(1S,3R)-3-morpholin-4-ylcyclopentyl]amino}-3-nitrophenyl)sulfonyl]-2-(1H-pyrrolo[2,3-b]pyridin-5-yloxy)benzamide] belongs less than 10 pM; to `CC1(C)CCC(CN2CCN(c3ccc(C(=O)NS(=O)(=O)c4ccc(N[C@@H]5CCN(CC(F)F)C5)c([N+](=O)[O-])c4)c(Oc4cnc5[nH]ccc5c4)c3)CC2)=C(c2ccc(Cl)cc2)C1` [Compound 180, 4-(4-{[2-(4-chlorophenyl)-4,4-dimethylcyclohex-1-en-1-yl]methyl}piperazin-1-yl)-N-[(4-{[(3R)-1-(2,2-difluoroethyl)pyrrolidin-3-yl]amino}-3-nitrophenyl)sulfonyl]-2-(1H-pyrrolo[2,3-b]pyridin-5-yloxy)benzamide], less than 10 pM.

Source of the values: US10213433B2 (AbbVie Inc., priority 2010, dated 2019).
